# From US5100873A, “Irreversible peptide ligands for bombesin receptors, their use, and process for making the same” (priority 1988, dated 1992)
# Where a name gives a salt, the structure may show the parent alone. Read-outs that look alike come from different tables or passages of the source. *1 amine or outer side, *2 acyl side, *3 side chain or, on linkers, in order; H or OH if unused. Where a SMILES comes first, the peptide text is derived from it. [ ]: non-standard residue; d: D form. The star is where a group is joined. Phe(4-N(CH2CH2Cl)2) = N[C@@H](Cc1ccc(N(CCCl)CCCl)cc1)C(=O)O; X1 = O=C([C@H](Cc1cccc(N(CCCl)CCCl)c1)N[*:1])[*:2]; Boc = CC(C)(C)OC(=O)*
# What was measured:
# [1] = test system: p115 protein associated with the bombesin receptor complex; test: Phosphorylation of the p115 protein associated with the bombesin receptor; format: cell-based
# Protocol: Mitogenic effect of bombesin and its analogues were also evaluated as activation of the proteintyrosin kinase that phosphorylates a 115 KD protein (p115) associated with the bombesin receptor complex (D. Cirillo et al. (1986) Mol. Cell. Biol. 6, 4641-4649) (Table 3).
# Swiss 3T3 fibroblasts [2] = test: [H3]thymidine incorporation (mitogenesis), analogues given alone; format: cell-based, mouse; conditions: for [H3]thymidine incorporation, fold increase over basal value: analogue alone; for Effect on thymidine incorporation (in words): given alone
# Protocol: (§1) The effect on mitogenesis was determined in quiescent and confluent Swiss 3T3 cells maintained in serum free medium (A. N. Corps et al (1985) Biochem J. 231, 781-785). In a first set of experiments, analogues were given alone or in combination with bombesin. In a second set of experiments, cells were pre-treated with the alkylating peptides, washed, left at 37° C. for 24 hours and then challenged with bombesin. In both cases, DNA synthesis was evaluated as [H^3 ]thymidine incorporation (Table 2).
# bombesin receptors = target: T1, bombesin receptors (Mus musculus, UniProt P21729); test: Binding affinity for bombesin receptors on mouse Swiss 3T3 fibroblasts; conditions: for ID50: mouse Swiss 3T3 fibroblasts
# T1 construct: bombesin receptors was determined on mouse Swiss 3T3 fibroblasts; endogenous in cells; host or cells: mouse Swiss 3T3 fibroblasts
# Protocol: The binding affinity of the compounds of the present invention for bombesin receptors was determined on mouse Swiss 3T3 fibroblasts (I. Zachary and E. Rozengurt (1985) Proc. Natl. Acad. Sci. USA, 82, 7616-7620) (Table 1).
# Swiss 3T3 fibroblasts [3] = test: Inhibition of BBS-induced [H3]thymidine incorporation (given with BBS or as pre-treatment); format: cell-based, mouse
# Swiss 3T3 fibroblasts [4] = test: as above; format: cell-based, mouse; conditions: for % inhibition in the presence of 25 nM BBS (A): A = analogues given in combination with BBS; for % inhibition in the presence of 25 nM BBS (B): B = cells pretreated with analogues, washed, left at 37° C. for 24 h, then challenged with BBS; for Antagonism of BBS (in words): given together / contemporaneously with BBS
# Protocol: as §1
# T1 sequence (P21729 whole entry): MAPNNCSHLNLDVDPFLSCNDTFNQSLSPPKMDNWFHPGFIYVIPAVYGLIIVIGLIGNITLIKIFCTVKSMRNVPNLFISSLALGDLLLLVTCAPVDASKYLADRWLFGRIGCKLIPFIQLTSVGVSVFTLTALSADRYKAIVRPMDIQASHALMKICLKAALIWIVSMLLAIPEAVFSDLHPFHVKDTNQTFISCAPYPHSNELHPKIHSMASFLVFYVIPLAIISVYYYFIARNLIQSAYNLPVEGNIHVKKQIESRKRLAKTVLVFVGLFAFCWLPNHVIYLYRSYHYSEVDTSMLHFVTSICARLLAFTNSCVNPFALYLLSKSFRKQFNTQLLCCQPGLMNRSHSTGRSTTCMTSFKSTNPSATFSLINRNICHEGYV
compound,measurement,setting,value
"CSCC[C@H](NC(=O)[C@H](CC(C)C)NC(=O)[C@H](Cc1cnc[nH]1)NC(=O)CNC(=O)[C@@H](NC(=O)[C@H](C)NC(=O)[C@H](Cc1c[nH]c2ccccc12)NC(=O)[C@H](CCC(N)=O)NC(=O)[C@H](CC(N)=O)NC(=O)CNC(=O)[C@H](CC(C)C)NC(=O)[C@H](CCCN=C(N)N)NC(=O)[C@H](CCC(N)=O)NC(=O)[C@@H]1CCC(=O)N1)C(C)C)C(N)=O [BBS, Glp-Gln-Arg-Leu-Gly-Asn-Gln-Trp-Ala-Val-Gly-His-Leu-Met-NH2, reference compound]","Minimal active dose, p115 phosphorylation",[1],3
same,"[H3]thymidine incorporation, fold increase over basal value",Swiss 3T3 fibroblasts [2]; 5 nM,3.0 ± 1
"CC(C)[C@H](NC(=O)[C@H](C)NC(=O)[C@H](Cc1c[nH]c2ccccc12)NC(=O)[C@H](CCC(N)=O)NC(=O)[C@H](Cc1ccc(N(CCCl)CCCl)cc1)NC(=O)OC(C)(C)C)C(=O)NCC(=O)O [III, Boc-pMel-Gln-Trp-Ala-Val-Gly-OH] (Boc-[Phe(4-N(CH2CH2Cl)2)]QWAVG-OH)",IC50,bombesin receptors,12000 nM
"CC(C)[C@H](NC(=O)[C@H](C)NC(=O)[C@H](Cc1c[nH]c2ccccc12)NC(=O)[C@H](CCC(N)=O)NC(=O)[C@H](Cc1cccc(N(CCCl)CCCl)c1)NC(=O)OC(C)(C)C)C(=O)NCC(=O)O [IX, Boc-mMel-Gln-Trp-Ala-Val-Gly-OH] (Boc-[X1]QWAVG-OH)",IC50,bombesin receptors,8200 nM
"CC(C)C[C@H](NC(=O)[C@H](CC(C)C)NC(=O)[C@@H](Cc1c[nH]c2ccccc12)NC(=O)[C@H](Cc1ccccc1)NC(=O)[C@@H](Cc1c[nH]c2ccccc12)NC(=O)[C@H](CCC(N)=O)NC(=O)[C@H](CCC(N)=O)NC(=O)[C@@H]1CCCN1C(=O)[C@H](CCCCN)NC(=O)[C@@H]1CCCN1C(=O)[C@H](N)CCCNC(=N)N)C(N)=O [Spantide, reference compound] (H-[dR]PKPQQ[dW]F[dW]LL-NH2)","Minimal active dose, p115 phosphorylation",[1],> 10000 nM
"CSCC[C@H](NC(=O)[C@H](CC(C)C)NC(=O)[C@H](Cc1c[nH]cn1)NC(=O)CNC(=O)[C@@H](NC(=O)[C@H](C)NC(=O)[C@H](Cc1c[nH]c2ccccc12)NC(=O)[C@H](CCC(N)=O)NC(=O)[C@H](Cc1ccc(N(CCCl)CCCl)cc1)NC(=O)OC(C)(C)C)C(C)C)C(N)=O [VI, Boc-pMel-Gln-Trp-Ala-Val-Gly-His-Leu-Met-NH2]",IC50,bombesin receptors,48 ± 2 nM
"CSCC[C@H](NC(=O)[C@H](CC(C)C)NC(=O)[C@H](Cc1c[nH]cn1)NC(=O)CNC(=O)[C@@H](NC(=O)[C@H](C)NC(=O)[C@H](Cc1c[nH]c2ccccc12)NC(=O)[C@H](CCC(N)=O)NC(=O)[C@@H](N)Cc1ccc(N(CCCl)CCCl)cc1)C(C)C)C(N)=O [VII, H-pMel-Gln-Trp-Ala-Val-Gly-His-Leu-Met-NH2.2 HCl]",IC50,bombesin receptors,60 ± 20 nM
"CSCC[C@H](NC(=O)[C@H](CC(C)C)NC(=O)CNC(=O)[C@@H](NC(=O)[C@H](C)NC(=O)[C@H](Cc1c[nH]c2ccccc12)NC(=O)[C@H](CCC(N)=O)NC(=O)[C@@H](NC(=O)CNC(=O)[C@H](CC(C)C)NC(=O)[C@H](Cc1cccc(N(CCCl)CCCl)c1)NC(=O)OC(C)(C)C)[C@@H](C)O)C(C)C)C(N)=O [XIV, Boc-mMel-Leu-Gly-Thr-Gln-Trp-Ala-Val-Gly-Leu-Met-NH2] (Boc-[X1]LGTQWAVGLM-NH2)",IC50,bombesin receptors,445 ± 60 nM
"CSCC[C@H](NC(=O)[C@H](CC(C)C)NC(=O)[C@H](Cc1c[nH]cn1)NC(=O)CNC(=O)[C@@H](NC(=O)[C@H](C)NC(=O)[C@H](Cc1c[nH]c2ccccc12)NC(=O)[C@H](CCC(N)=O)NC(=O)[C@@H](N)Cc1cccc(N(CCCl)CCCl)c1)C(C)C)C(N)=O [XIX, H-mMel-Gln-Trp-Ala-Val-Gly-His-Leu-Met-NH2.2HCl]",IC50,bombesin receptors,95 ± 8 nM
"CSCC[C@H](NC(=O)[C@H](CC(C)C)NC(=O)[C@H](Cc1c[nH]cn1)NC(=O)CNC(=O)[C@@H](NC(=O)[C@H](C)NC(=O)[C@H](Cc1c[nH]c2ccccc12)NC(=O)[C@H](CCC(N)=O)NC(=O)[C@H](Cc1cccc(N(CCCl)CCCl)c1)NC(=O)OC(C)(C)C)C(C)C)C(N)=O [XVIII, Boc-mMel-Gln-Trp-Ala-Val-Gly-His-Leu-Met-NH3.CF3 COOH]",IC50,bombesin receptors,40 ± 12 nM
"CSCC[C@H](NC(=O)[C@H](CC(C)C)NC(=O)CNC(=O)[C@@H](NC(=O)[C@H](C)NC(=O)[C@H](Cc1c[nH]c2ccccc12)NC(=O)[C@H](CCC(N)=O)NC(=O)[C@H](Cc1cccc(N(CCCl)CCCl)c1)NC(=O)OC(C)(C)C)C(C)C)C(N)=O [XX, Boc-mMel-Gln-Trp-Ala-Val-Gly-Leu-Met-NH2] (Boc-[X1]QWAVGLM-NH2)",IC50,bombesin receptors,60.1 ± 3.3 nM
Boc-mMel-Gln-Trp-Ala-Val-Gly-His(Dnp)-Leu-Met-NH2 [XVI],ID50,bombesin receptors,390 ± 160 nM
same,"Minimal active dose, p115 phosphorylation",[1],40 nM
same,Antagonism of BBS (in words),Swiss 3T3 fibroblasts [3],potent antagonists
same,% inhibition in the presence of 25 nM BBS (A),Swiss 3T3 fibroblasts [4]; 500 nM,17 ± 2%
same,% inhibition in the presence of 25 nM BBS (B),Swiss 3T3 fibroblasts [4]; 500 nM,47 ± 10%
same,% inhibition in the presence of 25 nM BBS (A),Swiss 3T3 fibroblasts [4]; 5000 nM,41 ± 1%
same,% inhibition in the presence of 25 nM BBS (B),Swiss 3T3 fibroblasts [4]; 5000 nM,37 ± 7%
same,Antagonism of BBS (in words),Swiss 3T3 fibroblasts [4],potent antagonists
same,"[H3]thymidine incorporation, fold increase over basal value",Swiss 3T3 fibroblasts [2]; 5 nM,1.2
same,"[H3]thymidine incorporation, fold increase over basal value",Swiss 3T3 fibroblasts [2]; 50 nM,1.6
same,"[H3]thymidine incorporation, fold increase over basal value",Swiss 3T3 fibroblasts [2]; 500 nM,3.1
same,"[H3]thymidine incorporation, fold increase over basal value",Swiss 3T3 fibroblasts [2]; 5000 nM,3.9
same,Effect on thymidine incorporation (in words),Swiss 3T3 fibroblasts [2],did not increase incorporation of thymidine
Boc-pMel-Gln-Trp-Ala-Val-Gly-His(Dnp)-Leu-Met-NH2 [IV],ID50,bombesin receptors,"1,170 ± 400 nM"
same,"Minimal active dose, p115 phosphorylation",[1],50 nM
same,Antagonism of BBS (in words),Swiss 3T3 fibroblasts [3],potent antagonists
same,% inhibition in the presence of 25 nM BBS (A),Swiss 3T3 fibroblasts [4]; 500 nM,59 ± 3%
same,% inhibition in the presence of 25 nM BBS (B),Swiss 3T3 fibroblasts [4]; 500 nM,81%
same,% inhibition in the presence of 25 nM BBS (A),Swiss 3T3 fibroblasts [4]; 5000 nM,67 ± 3%
same,% inhibition in the presence of 25 nM BBS (B),Swiss 3T3 fibroblasts [4]; 5000 nM,73%
same,Antagonism of BBS (in words),Swiss 3T3 fibroblasts [4],potent antagonists
same,"[H3]thymidine incorporation, fold increase over basal value",Swiss 3T3 fibroblasts [2]; 5 nM,1
same,"[H3]thymidine incorporation, fold increase over basal value",Swiss 3T3 fibroblasts [2]; 50 nM,1
same,"[H3]thymidine incorporation, fold increase over basal value",Swiss 3T3 fibroblasts [2]; 500 nM,1.7
same,"[H3]thymidine incorporation, fold increase over basal value",Swiss 3T3 fibroblasts [2]; 5000 nM,2.3
same,Effect on thymidine incorporation (in words),Swiss 3T3 fibroblasts [2],did not increase incorporation of thymidine
H-mMel-Gln-Trp-Ala-Val-Gly-His-(Dnp)-Leu-Met-NH2.HCl [XVII],ID50,bombesin receptors,148 ± 27 nM
same,"Minimal active dose, p115 phosphorylation",[1],4 nM
same,Antagonism of BBS (in words),Swiss 3T3 fibroblasts [3],potent antagonists
same,% inhibition in the presence of 25 nM BBS (A),Swiss 3T3 fibroblasts [4]; 500 nM,6 ± 3%
same,% inhibition in the presence of 25 nM BBS (B),Swiss 3T3 fibroblasts [4]; 500 nM,58 ± 13%
same,% inhibition in the presence of 25 nM BBS (A),Swiss 3T3 fibroblasts [4]; 5000 nM,20 ± 7%
same,% inhibition in the presence of 25 nM BBS (B),Swiss 3T3 fibroblasts [4]; 5000 nM,62 ± 1%
same,Antagonism of BBS (in words),Swiss 3T3 fibroblasts [4],potent antagonists
same,"[H3]thymidine incorporation, fold increase over basal value",Swiss 3T3 fibroblasts [2]; 5 nM,1
same,"[H3]thymidine incorporation, fold increase over basal value",Swiss 3T3 fibroblasts [2]; 50 nM,2.9
same,"[H3]thymidine incorporation, fold increase over basal value",Swiss 3T3 fibroblasts [2]; 500 nM,4.2
same,"[H3]thymidine incorporation, fold increase over basal value",Swiss 3T3 fibroblasts [2]; 5000 nM,3.9
same,Effect on thymidine incorporation (in words),Swiss 3T3 fibroblasts [2],did not increase incorporation of thymidine
H-pMel-Gln-Trp-Ala-Val-Gly-His(Dnp)-Leu-Met-NH2.HCl,ID50,bombesin receptors,680 ± 150 nM
same,"Minimal active dose, p115 phosphorylation",[1],100 nM
same,Antagonism of BBS (in words),Swiss 3T3 fibroblasts [3],potent antagonists
same,% inhibition in the presence of 25 nM BBS (A),Swiss 3T3 fibroblasts [4]; 500 nM,26 ± 8%
same,% inhibition in the presence of 25 nM BBS (B),Swiss 3T3 fibroblasts [4]; 500 nM,87 ± 9%
same,% inhibition in the presence of 25 nM BBS (A),Swiss 3T3 fibroblasts [4]; 5000 nM,44 ± 12%
same,% inhibition in the presence of 25 nM BBS (B),Swiss 3T3 fibroblasts [4]; 5000 nM,83 ± 6%
same,Antagonism of BBS (in words),Swiss 3T3 fibroblasts [4],potent antagonists
same,"[H3]thymidine incorporation, fold increase over basal value",Swiss 3T3 fibroblasts [2]; 5 nM,1
same,"[H3]thymidine incorporation, fold increase over basal value",Swiss 3T3 fibroblasts [2]; 50 nM,1
same,"[H3]thymidine incorporation, fold increase over basal value",Swiss 3T3 fibroblasts [2]; 500 nM,1.4
same,"[H3]thymidine incorporation, fold increase over basal value",Swiss 3T3 fibroblasts [2]; 5000 nM,1.8
same,Effect on thymidine incorporation (in words),Swiss 3T3 fibroblasts [2],did not increase incorporation of thymidine
